Reference: patent US11541006B2, “Aqueous formulation for insoluble drugs” (priority 2018, dated 2023)
In brackets after ≈: the same amount, converted by molar mass. Counter-ions that a name gives are not always drawn. Values belong to the compound of their own block, whether it stands above or below them.

What was measured:
[1] = Solubility of insoluble drugs in F96 LMBW vehicle (Example 4); type: physicochemical; settings: for solubility: aqueous with cosolvent or surfactant or cyclodextrin, thermodynamic from solid
Source text: Twenty-two (22) insoluble drugs having a wide variety of chemical structures (including chemical element, small molecule, peptide and protein), properties and biological activities (including drugs, diagnostic agents and nutritional supplement agents) were selected and tested for solubility in F96 LMBW vehicle as follows: • 1. Measure out a fixed amount of F96 vehicle. • 2. Add a known amount of an insoluble drug substance. • 3. Mix to dissolve the drug substance. • 4. […] Record the maximum amount of the insoluble drug substance that the F96 LMBW vehicle could dissolve and use this value to calculate the drug's solubility in the F96 LMBW vehicle.

[2] = Solubility of insoluble drugs in 16% SBECD aqueous solution (Example 27); settings: for solubility: 16% SBECD aqueous solution, aqueous with cosolvent or surfactant or cyclodextrin, thermodynamic from solid; for Measured solubility in 16% SBECD: 16% sulfobutyl ether beta cyclodextrin aqueous solution
Source text: Add a known amount of an insoluble drug substance. • 3. Mix to dissolve the drug substance. • 4.

[3] = cited from earlier work; for Solubility according to USP definition: in water
[4] = Solubility of disease-related insoluble solids in LMBW vehicle and PBS (Example 29); type: physicochemical; settings: for solubility: thermodynamic from solid
Source text: These solids have very low solubility in the body fluids and therefore they have a high tendency to precipitate and to form the undesirable solid deposits in vivo. […] Weigh out a fixed amount of a solid of interest, • 2. […] Mix to dissolve the solid, • 4. If the solid has completely dissolved, add more until it is no longer dissolving in the vehicle • 5.

physchem = settings: for Appearance of the undiluted solutions / Appearance of the solutions after being diluted in an IV infusion fluid: RT, 24 hours; for Appearance of the solutions after being diluted in an IV infusion fluid: diluted to about 0.5 to 5 mg/mL
Description: Different amounts of voriconazole (20 to 60 mg/mL) were first dissolved in F145V and subsequently diluted in an IV infusion fluid, such as normal saline (NS), 5% dextrose in water (D5W), water for injection (WFI), or Lactated Ringers solution, to a final voriconazole concentration of about 0.5 to 5 mg/mL.

[5] = Voriconazole stability versus pH and predicted F96 shelf life T90 (separate study); type: physicochemical
[6] = Voriconazole solubility in LMBW versus binary/ternary mixtures of L, M, B and alcohol (Example 2); type: physicochemical; settings: thermodynamic from solid
Description: For this study, voriconazole was used as the insoluble drug.
To determine solubility in each combination, voriconazole was added to each combination and mixed until it no longer would dissolve. For each mixture, the pH was adjusted to pH 4.5-5, equilibrated at room temperature, and then passed through a 0.2-micron filter. The filtrate was analyzed by HPLC for voriconazole concentration. Each HPLC-determined voriconazole concentration is noted as a “Voriconazole solubility” in the tables below.

- solubility [1]: 2400 µg/mL (≈ 2.6 mM)
- solubility [2]: 70 µg/mL (≈ 0.0758 mM)
Compound: C[C@@H]1[C@H](O)[C@@H](C)/C=C/C=C/C=C/C=C/C=C/C=C/C=C/[C@H](O[C@@H]2O[C@H](C)[C@@H](O)[C@H](N)[C@@H]2O)C[C@@H]2O[C@](O)(C[C@@H](O)C[C@@H](O)[C@H](O)CC[C@@H](O)C[C@@H](O)CC(=O)O[C@H]1C)C[C@H](O)[C@H]2C(=O)O [Amphotericin]
- Solubility according to USP definition [3]: Insoluble
- Reported solubility in water ([3]; water): <0.0001 mg/mL

- solubility [1]: 12700 µg/mL (≈ 23.8 mM)
- solubility [2]: 150 µg/mL (≈ 0.281 mM)
Compound: C[C@@H](O[C@H]1OCCN(Cc2n[nH]c(=O)[nH]2)[C@H]1c1ccc(F)cc1)c1cc(C(F)(F)F)cc(C(F)(F)F)c1 [Aprepitant]
- Solubility according to USP definition [3]: Practically
- Reported solubility in water ([3]; water): <0.0001 mg/mL

Compound: CC[C@@]1(O)C(=O)OCc2c1cc1n(c2=O)Cc2cc3ccccc3nc2-1 [Camptothecin]
- solubility [1]: 500 to 1000 µg/mL (≈ 1.44 to 2.87 mM)
- solubility [2]: 60 µg/mL (≈ 0.172 mM)
- Solubility according to USP definition [3]: Insoluble
- Reported solubility in water ([3]; water): <0.0001 mg/mL

- solubility [1]: 7300 µg/mL (≈ 19.1 mM)
- solubility [2]: 1030 µg/mL (≈ 2.7 mM)
Compound: Cc1ccc(-c2cc(C(F)(F)F)nn2-c2ccc(S(N)(=O)=O)cc2)cc1 [Celecoxib]
- Solubility according to USP definition [3]: Very poorly
- Reported solubility in water ([3]; water): 0.001-0.0001 mg/mL

- solubility ([4]; F96 LMBW vehicle, aqueous with cosolvent or surfactant or cyclodextrin, vehicle at pH 7): 25000 µg/mL (≈ 64.7 mM)
- solubility ([4]; phosphate buffered saline, aqueous buffer, read-out: Solubility in PBS): 50 µg/mL (≈ 0.129 mM)
Compound: CC(C)CCC[C@@H](C)[C@H]1CC[C@H]2[C@@H]3CC=C4C[C@@H](O)CC[C@]4(C)[C@H]3CC[C@]12C [Cholesterol]

- solubility [1]: 9100 µg/mL (≈ 12.2 mM)
- solubility [2]: 1710 µg/mL (≈ 2.29 mM)
Compound: CC[C@H]1OC(=O)[C@H](C)[C@@H](O[C@H]2C[C@@](C)(OC)[C@@H](O)[C@H](C)O2)[C@H](C)[C@@H](O[C@@H]2O[C@H](C)C[C@H](N(C)C)[C@H]2O)[C@](C)(OC)C[C@@H](C)C(=O)[C@H](C)[C@@H](O)[C@]1(C)O [Clarithromycin]
- Solubility according to USP definition [3]: Practically
- Reported solubility in water ([3]; water): <0.0001 mg/mL

- solubility [1]: 53100 µg/mL (≈ 257 mM)
- solubility [2]: 3580 µg/mL (≈ 17.4 mM)
Compound: CC(C)Cc1ccc(C(C)C(=O)O)cc1 (centres unmarked) [Ibuprofen]
- Solubility according to USP definition [3]: Sparingly

Compound: CCC(C)n1ncn(-c2ccc(N3CCN(c4ccc(OCC5COC(Cn6cncn6)(c6ccc(Cl)cc6Cl)O5)cc4)CC3)cc2)c1=O (centres unmarked) [Intraconazole]
- Measured solubility in F96 LMBW Vehicle ([1]; stepwise addition until no longer dissolving): 500 to 1000 µg/mL
- Measured solubility in 16% SBECD [2]: 170 µg/mL
- Solubility according to USP definition [3]: Insoluble
- Reported solubility in water ([3]; water): <0.0001 mg/mL

- solubility [1]: 20400 µg/mL
- solubility [2]: 2120 µg/mL
Compound: CCc1c2c(nc3ccc(OC(=O)N4CCC(N5CCCCC5)CC4)cc13)-c1cc3c(c(=O)n1C2)COC(=O)[C@]3(O)CC [Irinotecan HCl]
- Solubility according to USP definition [3]: Insoluble
- Reported solubility in water ([3]; water): <0.0001 mg/mL

- solubility [1]: 10000 µg/mL (≈ 50.7 mM)
- solubility [2]: 2130 µg/mL (≈ 10.8 mM)
Compound: N[C@@H](Cc1ccc(O)c(O)c1)C(=O)O [Levodopa]
- Solubility according to USP definition [3]: Slightly soluble (100-1000)

Compound: O=c1[nH]c(=O)c2[nH]c([O-])nc2[nH]1.[Na+] [Mono sodium urate]
- Solubility in PBS ([4]; phosphate buffered saline): <1 µg/mL
- Measured solubility in F96 LMBW Vehicle ([4]; vehicle at pH 7): 50 µg/mL

Compound: CC(=O)O[C@H]1C(=O)[C@@]2(C)[C@H]([C@H](OC(=O)c3ccccc3)[C@]3(O)C[C@H](OC(=O)[C@H](O)[C@@H](NC(=O)c4ccccc4)c4ccccc4)C(C)=C1C3(C)C)[C@]1(OC(C)=O)CO[C@@H]1C[C@@H]2O [Paclitaxel]
- Solubility according to USP definition [3]: Insoluble
- Reported solubility in water ([3]; water): <0.0001 mg/mL

- solubility [1]: 28200 µg/mL (≈ 62.6 mM)
- solubility [2]: 150 µg/mL (≈ 0.333 mM)
Compound: CC1=C(C/C=C(\C)CCC[C@H](C)CCC[C@H](C)CCCC(C)C)C(=O)c2ccccc2C1=O [Phytonadione]
- Solubility according to USP definition [3]: Insoluble
- Reported solubility in water ([3]; water): <0.0001 mg/mL

- solubility [1]: 500 µg/mL (≈ 0.713 mM)
- solubility [2]: 270 µg/mL (≈ 0.385 mM)
Compound: CC[C@@H]([C@H](C)O)n1ncn(-c2ccc(N3CCN(c4ccc(OC[C@@H]5CO[C@@](Cn6cncn6)(c6ccc(F)cc6F)C5)cc4)CC3)cc2)c1=O [Posaconazole]
- Solubility according to USP definition [3]: Insoluble
- Reported solubility in water ([3]; water): <0.0001 mg/mL

- solubility [1]: 12000 µg/mL (≈ 38.2 mM)
- solubility [2]: 4060 µg/mL (≈ 12.9 mM)
Compound: CC(=O)[C@H]1CC[C@H]2[C@@H]3CCC4=CC(=O)CC[C@]4(C)[C@H]3CC[C@]12C [Progesterone]
- Solubility according to USP definition [3]: Sparingly
- Reported solubility in water ([3]; water): 0.017 mg/mL

Compound: CC(C)c1cccc(C(C)C)c1O [Propofol]
- solubility [1]: 50800 µg/mL (≈ 285 mM)
- solubility [2]: 56600 µg/mL (≈ 317 mM)
- Solubility according to USP definition [3]: Insoluble
- Reported solubility in water ([3]; water): <0.0001 mg/mL

- solubility [1]: 9000 µg/mL (≈ 39.4 mM)
- solubility [2]: 4850 µg/mL (≈ 21.2 mM)
Compound: Oc1ccc(C=Cc2cc(O)cc(O)c2)cc1 [Resveratrol]
- Solubility according to USP definition [3]: Insoluble
- Reported solubility in water ([3]; water): <0.0001 mg/mL

- Solubility increase over water (physchem): 86 folds
- Appearance of the undiluted solutions (physchem; 20 mg/mL added to F145V): Clear & one-phase solution
- Appearance of the solutions after being diluted in an IV infusion fluid (physchem; 20 mg/mL in F145V): Clear & one-phase solution
- Appearance of the undiluted solutions (physchem; 30 mg/mL added to F145V): Clear & one-phase solution
- Appearance of the solutions after being diluted in an IV infusion fluid (physchem; 30 mg/mL in F145V): Clear & one-phase solution
- Appearance of the undiluted solutions (physchem; 40 mg/mL added to F145V): Clear & one-phase solution
- Appearance of the solutions after being diluted in an IV infusion fluid (physchem; 40 mg/mL in F145V): Slight precipitation
- Appearance of the undiluted solutions (physchem; 50 mg/mL added to F145V): Clear & one-phase solution
- Appearance of the solutions after being diluted in an IV infusion fluid (physchem; 50 mg/mL in F145V): Major precipitation
- Appearance of the undiluted solutions (physchem; 60 mg/mL added to F145V): Clear & one-phase solution
- Appearance of the solutions after being diluted in an IV infusion fluid (physchem; 60 mg/mL in F145V): Major precipitation
- solubility at 24 h (physchem; aqueous with cosolvent or surfactant or cyclodextrin): ≥ 60000 µg/mL
- solubility [1]: 20000 µg/mL (≈ 57.3 mM)
- solubility [2]: 8600 µg/mL (≈ 24.6 mM)
- pH at which most stable in an aqueous solution [5]: ~4
- solubility ([6]; LMBW (lecithin, MCT, bile acid, alcohols in water), pH 4.5, aqueous with cosolvent or surfactant or cyclodextrin): 29400 µg/mL
- solubility ([6]; MCT and alcohols in water), aqueous with cosolvent or surfactant or cyclodextrin, vehicle % wt in water: glycocholic acid 10.6, MCT 15, benzyl alcohol 4.5, ethanol 6.5, emulsion, opaque, pH 4.5-5, RT): 8000 µg/mL
- solubility ([6]; MCT and alcohols in water), aqueous with cosolvent or surfactant or cyclodextrin, vehicle % wt in water: lecithin 25, MCT 15, benzyl alcohol 4.5, ethanol 6.5, emulsion, opaque, pH 4.5-5, RT): 19800 µg/mL
- solubility ([6]; alcohol solution (benzyl alcohol and ethanol in water), pH 4.5, aqueous with cosolvent or surfactant or cyclodextrin): 1100 µg/mL
- solubility ([6]; aqueous with cosolvent or surfactant or cyclodextrin, vehicle % wt in water: MCT 15, emulsion, opaque, pH 4.5-5, RT): 500 µg/mL
- solubility ([6]; aqueous with cosolvent or surfactant or cyclodextrin, vehicle % wt in water: glycocholic acid 10.6, micelle solution, hazy, pH 4.5-5, RT): 2100 µg/mL
- solubility ([6]; aqueous with cosolvent or surfactant or cyclodextrin, vehicle % wt in water: lecithin 25, glycocholic acid 10.6, benzyl alcohol 4.5, ethanol 6.5, micelle solution, hazy, pH 4.5-5, RT): 8000 µg/mL
- solubility ([6]; aqueous with cosolvent or surfactant or cyclodextrin, vehicle % wt in water: lecithin 25, liposome, hazy, pH 4.5-5, RT): 800 µg/mL
- solubility ([6]; emulsion (MCT and alcohols in water), aqueous with cosolvent or surfactant or cyclodextrin, vehicle % wt in water: MCT 15, benzyl alcohol 4.5, ethanol 6.5, emulsion, opaque, pH 4.5-5, RT): 19400 µg/mL
- solubility ([6]; emulsion (glycocholic acid and MCT in water), aqueous with cosolvent or surfactant or cyclodextrin, vehicle % wt in water: glycocholic acid 10.6, MCT 15, emulsion, opaque, pH 4.5-5, RT): 3100 µg/mL
- solubility ([6]; emulsion (lecithin and MCT in water), aqueous with cosolvent or surfactant or cyclodextrin, vehicle % wt in water: lecithin 25, MCT 15, emulsion, opaque, pH 4.5-5, RT): 1400 µg/mL
- solubility ([6]; liposome (lecithin and alcohols in water), aqueous with cosolvent or surfactant or cyclodextrin, vehicle % wt in water: lecithin 25, benzyl alcohol 4.5, ethanol 6.5, liposome, hazy, pH 4.5-5, RT): 13700 µg/mL
- solubility ([6]; micelle solution (glycocholic acid and alcohols in water), aqueous with cosolvent or surfactant or cyclodextrin, vehicle % wt in water: glycocholic acid 10.6, benzyl alcohol 4.5, ethanol 6.5, micelle solution, hazy, pH 4.5-5, RT): 7600 µg/mL
- solubility ([6]; micelle solution (lecithin and glycocholic acid in water), aqueous with cosolvent or surfactant or cyclodextrin, vehicle % wt in water: lecithin 25, glycocholic acid 10.6, micelle solution, hazy, pH 4.5-5, RT): 7100 µg/mL
Compound: C[C@@H](c1ncncc1F)[C@](O)(Cn1cncn1)c1ccc(F)cc1F [Voriconazole]
- Solubility according to USP definition [3]: Insoluble
- Solubility in water ([3]; water, 25° C.): about 0.7 mg/mL
- Reported solubility in water ([3]; water): 0.7 mg/mL

Compound: Casein
- Measured solubility in 16% SBECD [2]: 150 µg/mL
- Solubility according to USP definition [3]: Very poorly
- Reported solubility in water ([3]; water): 0.001-0.0001 mg/mL
